For orientation: IC50 means the concentration at which inhibition is half-maximal.

Experiment [1] has as its target GST-tagged truncated LRRK2 (Homo sapiens (Human), UniProt Q5S007). Kind of experiment: LRRK2 Lantha Screen kinase assay. Format: biochemical. The settings on record: geometric mean of 2-5 determinations unless otherwise indicated (a: >=6 determinations; b: single determination); read-out: LRRK2 WT IC50.
The target of experiment [2] is mutant G2019S LRRK2 (Homo sapiens (Human), UniProt Q5S007, G2019S). Kind of experiment: LRRK2 Lantha Screen kinase assay, mutant enzyme. Conditions: geometric mean of 2-5 determinations unless otherwise indicated (a: >=6 determinations; b: single determination). Format: biochemical.
mutant G2019S LRRK2, sequence (Q5S007 970-2527 G2019S): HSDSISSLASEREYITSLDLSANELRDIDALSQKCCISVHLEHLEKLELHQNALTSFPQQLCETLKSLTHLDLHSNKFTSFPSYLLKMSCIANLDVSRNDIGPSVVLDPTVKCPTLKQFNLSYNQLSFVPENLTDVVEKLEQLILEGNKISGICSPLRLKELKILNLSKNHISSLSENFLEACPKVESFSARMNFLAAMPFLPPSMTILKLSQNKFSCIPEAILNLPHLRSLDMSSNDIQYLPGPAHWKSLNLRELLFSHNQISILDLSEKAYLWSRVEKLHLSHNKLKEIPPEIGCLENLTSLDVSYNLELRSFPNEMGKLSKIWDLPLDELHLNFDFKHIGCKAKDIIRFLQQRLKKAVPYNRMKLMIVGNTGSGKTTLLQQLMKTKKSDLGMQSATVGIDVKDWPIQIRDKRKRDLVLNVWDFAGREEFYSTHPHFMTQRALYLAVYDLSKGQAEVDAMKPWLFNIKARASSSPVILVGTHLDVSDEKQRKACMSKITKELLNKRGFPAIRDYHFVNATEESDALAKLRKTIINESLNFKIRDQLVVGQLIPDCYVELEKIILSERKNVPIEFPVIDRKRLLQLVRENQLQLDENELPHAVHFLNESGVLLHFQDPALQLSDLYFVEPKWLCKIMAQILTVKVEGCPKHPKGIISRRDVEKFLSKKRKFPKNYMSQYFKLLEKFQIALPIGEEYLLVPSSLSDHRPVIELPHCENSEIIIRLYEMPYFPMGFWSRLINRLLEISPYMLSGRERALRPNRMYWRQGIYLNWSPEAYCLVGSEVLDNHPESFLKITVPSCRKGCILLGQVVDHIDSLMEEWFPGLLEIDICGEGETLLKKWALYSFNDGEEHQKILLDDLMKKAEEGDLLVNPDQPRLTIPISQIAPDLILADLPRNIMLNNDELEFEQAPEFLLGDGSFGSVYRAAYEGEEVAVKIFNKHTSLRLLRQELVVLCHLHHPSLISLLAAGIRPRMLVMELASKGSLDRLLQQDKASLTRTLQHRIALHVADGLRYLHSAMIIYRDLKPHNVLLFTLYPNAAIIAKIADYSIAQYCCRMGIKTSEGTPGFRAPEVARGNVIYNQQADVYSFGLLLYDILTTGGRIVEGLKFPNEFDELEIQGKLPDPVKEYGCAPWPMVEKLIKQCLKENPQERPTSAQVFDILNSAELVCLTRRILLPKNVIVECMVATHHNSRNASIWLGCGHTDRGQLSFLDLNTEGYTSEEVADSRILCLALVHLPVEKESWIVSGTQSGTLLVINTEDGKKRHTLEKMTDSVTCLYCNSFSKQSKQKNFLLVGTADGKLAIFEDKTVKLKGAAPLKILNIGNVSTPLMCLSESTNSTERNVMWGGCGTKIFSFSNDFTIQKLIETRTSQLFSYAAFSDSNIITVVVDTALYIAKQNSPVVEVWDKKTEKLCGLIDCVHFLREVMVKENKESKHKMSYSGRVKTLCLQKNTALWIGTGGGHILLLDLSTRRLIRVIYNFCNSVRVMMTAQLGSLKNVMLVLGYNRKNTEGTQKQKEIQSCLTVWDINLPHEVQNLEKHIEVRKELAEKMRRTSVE

GST-tagged truncated LRRK2, sequence (Q5S007 970-2527): as the sequence (Q5S007 970-2527 G2019S) above, with S1050G counted along it

With `N#Cc1cccc(-c2c[nH]c3ncnc(N4CCOC(c5ccncn5)C4)c23)c1` (stereo not shown) [Example 141, 3-{4-[2-(pyrimidin-4-yl)morpholin-4-yl]-7H-pyrrolo[2,3-d]pyrimidin-5-yl}benzonitrile], the results for the half-inhibitory concentration (IC50) in experiment [1] and in experiment [2] were 79 nM and 193 nM, respectively.
With `N#Cc1cccc(-c2c[nH]c3ncnc(N4CCOC(c5nc(C6CC6)no5)C4)c23)c1` (stereo not shown) [Example 142, 3-{4-[2-(3-cyclopropyl-1,2,4-oxadiazol-5-yl)morpholin-4-yl]-7H-pyrrolo[2,3-d]pyrimidin-5-yl}benzonitrile], the values for the IC50 in experiment [1] and in experiment [2] were 30 nM and 84 nM, respectively.
For `CN(C)CC1CN(c2ncnc3[nH]cc(-c4cccc(C#N)c4)c23)CCO1` (stereo not shown) [Example 143, 3-(4-{2-[(dimethylamino)methyl]morpholin-4-yl}-7H-pyrrolo[2,3-d]pyrimidin-5-yl)benzonitrile] the same measures were 45 nM and 110 nM.
For `N#Cc1cccc(-c2c[nH]c3ncnc(Nc4cn[nH]c4)c23)c1` [Example 144, 3-[4-(1H-pyrazol-4-ylamino)-7H-pyrrolo[2,3-d]pyrimidin-5-yl]benzonitrile], the half-inhibitory concentration (IC50) was determined as 69 nM in experiment [1] and 36 nM in experiment [2].
Taken in the same sequence, the figures for `Cc1nc(CC2CN(c3ncnc4[nH]cc(-c5cccc(C#N)c5)c34)CCO2)no1` (stereo not shown) [Example 145, 3-(4-{2-[(5-methyl-1,2,4-oxadiazol-3-yl)methyl]morpholin-4-yl}-7H-pyrrolo[2,3-d]pyrimidin-5-yl)benzonitrile] were 55 nM and 155 nM.
On to `Cc1nnc(C2CCCN(c3ncnc4[nH]cc(-c5cccc(C#N)c5)c34)C2)o1` (stereo not shown) [Example 146, 3-{4-[3-(5-methyl-1,3,4-oxadiazol-2-yl)piperidin-1-yl]-7H-pyrrolo[2,3-d]pyrimidin-5-yl}benzonitrile], for which the IC50 is 96 nM in experiment [1] and 217 nM in experiment [2].
For the molecule `COc1cc(C#N)cc(-c2c[nH]c3ncnc(N(C)C)c23)c1` [Example 147, 3-[4-(dimethylamino)-7H-pyrrolo[2,3-d]pyrimidin-5-yl]-5-methoxybenzonitrile], the results for the IC50 in experiment [1] and in experiment [2] were 37 nM and 93 nM, respectively.
On to `CCn1cc(-c2c[nH]c3ncnc(N4CCOCC4)c23)cn1` [Example 148, 5-(1-ethyl-1H-pyrazol-4-yl)-4-(morpholin-4-yl)-7H-pyrrolo[2,3-d]pyrimidine], for which the half-maximal inhibitory concentration (IC50) is 77 nM in experiment [1] and 92 nM in experiment [2].
As to `Cc1cncc(-c2c[nH]c3ncnc(N4CCOCC4)c23)c1` [Example 149, 5-(5-methylpyridin-3-yl)-4-(morpholin-4-yl)-7H-pyrrolo[2,3-d]pyrimidine], the 50% inhibitory concentration (IC50) is 18 nM in experiment [1] and 30 nM in experiment [2].
Taken in the same sequence, the figures for `Clc1cncc(-c2c[nH]c3ncnc(N4CCOCC4)c23)c1` [Example 150, 5-(5-chloropyridin-3-yl)-4-(morpholin-4-yl)-7H-pyrrolo[2,3-d]pyrimidine] were 28 nM and 36 nM.
Take `COc1cncc(-c2c[nH]c3ncnc(N4CCOCC4)c23)n1` [Example 151, 5-(6-methoxypyrazin-2-yl)-4-(morpholin-4-yl)-7H-pyrrolo[2,3-d]pyrimidine]: the results for the IC50 in experiment [1] and in experiment [2] were 32 nM and 37 nM, respectively.
For `Cc1nn(C)cc1-c1c[nH]c2ncnc(N3CCOCC3)c12` [Example 152, 5-(1,3-dimethyl-1H-pyrazol-4-yl)-4-(morpholin-4-yl)-7H-pyrrolo[2,3-d]pyrimidine] the same measures were 60 nM and 91 nM.
Regarding `C[C@H]1COCCN1c1ncnc2[nH]cc(-c3cccc(C#N)c3)c12` [Example 153, 3-{4-[(3S)-3-methylmorpholin-4-yl]-7H-pyrrolo[2,3-d]pyrimidin-5-yl}benzonitrile], the values for the IC50 in experiment [1] and in experiment [2] were 44 nM and 165 nM, respectively.
Turning to `Cc1nc(N2CCOCC2)c2c(-c3cccc(C#N)c3F)c[nH]c2n1` [Example 154, 2-fluoro-3-[2-methyl-4-(morpholin-4-yl)-7H-pyrrolo[2,3-d]pyrimidin-5-yl]benzonitrile], the half-inhibitory concentration (IC50) in experiment [1] amounted to 30 nM; in experiment [2], 365 nM.

The values above are taken from patent US9156845B2, “4-(substituted amino)-7H-pyrrolo[2,3-d] pyrimidines as LRRK2 inhibitors” (Pfizer Inc., priority 2012, dated 2015).
